19 compounds from patent publication US9233964B2, “Sulfamide piperazine derivatives as protein tyrosine kinase inhibitors and pharmaceutical use therof” (LEO PHARMA A/S, priority 2011, dated 2016) can be followed below.

What all share (assay type): biochemical
One assay concerns the target T1, JAK3 (Homo sapiens, UniProt P52333).
T1 construct: All four purified enzymes contain only the catalytic domain; His (N); purchased Carna Biosciences, Inc; host or cells: baculovirus expression system
Kind of assay: JAK kinase assay (HTRF, phosphorylation of synthetic peptide), JAK3. The note with it: catalytic domain, ATP at Km (2 μM); read-out: JAK3 kinase inhibitory activity (EC50). In general terms: In TR-FRET formats the signal depends on donor and acceptor labels being close together.

A further assay addresses T2, JAK2 (Homo sapiens, UniProt O60674).
T2 construct: All four purified enzymes contain only the catalytic domain; His (N); purchased Carna Biosciences, Inc; host or cells: baculovirus expression system
Kind of assay: JAK kinase assay (HTRF, phosphorylation of synthetic peptide), JAK2. The note with it: catalytic domain, ATP at Km (4 μM); read-out: JAK2 kinase inhibitory activity (EC50). The procedure, abridged:
(§1)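 Catalytic-domain human JAK1 (GST-tagged, aa 850-1154) or His-tagged JAK2, baculovirus-expressed, phosphorylated 1 µM biotinylated TK peptide at Km ATP (JAK1 7 µM, 10 mM MgCl2, 50 nM SEB; JAK2 4 µM, 5 mM MgCl2) in pH 7.0 Hepes, 20-30 min RT. EDTA stop; overnight streptavidin-XL665/cryptate HTRF read.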

In a further assay the target is T3, TYK2 (Homo sapiens, UniProt P29597).
T3 construct: JAK1 (aa 850-1154) and TYK2 (aa 871-1187) are expressed with an N-terminally fused GST-tag; GST (N); purchased Carna Biosciences, Inc; host or cells: baculovirus expression system
T3 sequence (P29597 871-1187): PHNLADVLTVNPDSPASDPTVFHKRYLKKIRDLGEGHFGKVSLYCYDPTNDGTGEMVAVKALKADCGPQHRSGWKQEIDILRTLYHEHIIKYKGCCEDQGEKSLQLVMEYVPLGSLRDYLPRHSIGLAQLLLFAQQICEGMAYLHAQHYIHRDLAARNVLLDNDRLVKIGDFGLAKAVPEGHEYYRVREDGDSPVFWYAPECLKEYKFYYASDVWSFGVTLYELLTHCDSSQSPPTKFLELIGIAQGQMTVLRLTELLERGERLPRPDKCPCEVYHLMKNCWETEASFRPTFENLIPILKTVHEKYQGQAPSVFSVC
In words: JAK kinase assay (HTRF, phosphorylation of synthetic peptide), TYK2. The note with it: catalytic domain, ATP at Km (13 μM); read-out: TYK2 kinase inhibitory activity (EC50). Put shortly:
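1 µM biotinylated TK peptide at Km ATP in pH 7.0 Hepes, 20-30 min RT. EDTA stop; overnight streptavidin-XL665/cryptate HTRF read.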

A further assay concerns the target T4, JAK1 (Homo sapiens, UniProt P23458).
T4 construct: JAK1 (aa 850-1154) and TYK2 (aa 871-1187) are expressed with an N-terminally fused GST-tag; GST (N); purchased Carna Biosciences, Inc; host or cells: baculovirus expression system
Kind of assay: JAK kinase assay (HTRF, phosphorylation of synthetic peptide), JAK1. Conditions: catalytic domain, ATP at Km (7 μM); read-out: JAK1 kinase inhibitory activity (EC50). The procedure, abridged:
as §1

What is called EC50 is the midpoint of the concentration-response curve.

T2 sequence (O60674 849-1124 limits assumed): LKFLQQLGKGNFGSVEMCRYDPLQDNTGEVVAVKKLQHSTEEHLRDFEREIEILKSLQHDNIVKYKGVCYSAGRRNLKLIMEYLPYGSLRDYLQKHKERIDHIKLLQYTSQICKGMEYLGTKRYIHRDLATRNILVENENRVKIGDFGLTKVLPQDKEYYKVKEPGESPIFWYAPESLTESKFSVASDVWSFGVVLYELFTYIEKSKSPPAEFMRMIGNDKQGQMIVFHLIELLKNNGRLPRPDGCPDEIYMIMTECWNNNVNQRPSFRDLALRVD
T4 sequence (P23458 850-1154): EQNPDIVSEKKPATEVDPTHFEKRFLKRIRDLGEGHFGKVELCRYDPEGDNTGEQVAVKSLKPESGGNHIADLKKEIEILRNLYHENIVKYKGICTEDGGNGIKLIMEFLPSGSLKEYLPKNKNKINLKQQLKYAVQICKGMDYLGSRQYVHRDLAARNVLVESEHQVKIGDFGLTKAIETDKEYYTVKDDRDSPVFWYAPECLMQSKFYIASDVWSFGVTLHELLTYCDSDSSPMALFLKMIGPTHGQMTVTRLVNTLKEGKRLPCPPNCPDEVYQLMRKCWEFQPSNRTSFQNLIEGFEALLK
T1 sequence (P52333 822-1111 limits assumed): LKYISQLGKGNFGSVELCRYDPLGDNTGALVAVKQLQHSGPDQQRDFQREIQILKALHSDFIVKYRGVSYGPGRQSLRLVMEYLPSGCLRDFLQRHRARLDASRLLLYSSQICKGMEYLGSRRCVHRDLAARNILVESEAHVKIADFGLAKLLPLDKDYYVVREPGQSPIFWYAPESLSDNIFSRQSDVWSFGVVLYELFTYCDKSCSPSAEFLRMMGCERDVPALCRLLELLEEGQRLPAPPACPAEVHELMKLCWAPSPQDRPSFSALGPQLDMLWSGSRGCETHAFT

As for `CN(C(=O)CC1CCS(=O)(=O)CC1)S(=O)(=O)N1CCN(c2ncnc3[nH]ccc23)CC12CC2` [Example 136, 2-(1,1-dioxothian-4-yl)-N-methyl-N-[[5-(7H-pyrrolo[2,3-d]pyrimidin-4-yl)-5,8-diazaspiro[2.5]octan-8-yl]sulfonyl]acetamide], the EC50 is 100 to 500 nM on JAK3, less than 100 nM on JAK2, greater than 500 nM at TYK2 and less than 100 nM at JAK1.
For `CN(C(=O)CCC1CCS(=O)(=O)C1)S(=O)(=O)N1CCN(c2ncnc3[nH]ccc23)CC12CC2` (stereo not shown) [Example 137, 3-(1,1-dioxothiolan-3-yl)-N-methyl-N-[[5-(7H-pyrrolo[2,3-d]pyrimidin-4-yl)-5,8-diazaspiro[2.5]octan-8-yl]sulfonyl]propanamide], the EC50 on JAK3 is 100 to 500 nM; at JAK2 it was less than 100 nM; on TYK2, greater than 500 nM; on JAK1 it was less than 100 nM.
As for `CN(C(=O)CC1CCS(=O)(=O)C1)S(=O)(=O)N1CCN(c2ncnc3[nH]ccc23)CC12CC2` (stereo not shown) [Example 138, 2-(1,1-dioxothiolan-3-yl)-N-methyl-N-[[5-(7H-pyrrolo[2,3-d]pyrimidin-4-yl)-5,8-diazaspiro[2.5]octan-8-yl]sulfonyl]acetamide], the EC50 at JAK3 was 100 to 500 nM; on JAK2, less than 100 nM; on TYK2 it was greater than 500 nM; at JAK1 it was less than 100 nM.
In the case of `CN(C(=O)C1CCS(=O)(=O)CC1)S(=O)(=O)N1CCN(c2ncnc3[nH]ccc23)CC12CC2` [Example 139, N-methyl-1,1-dioxo-N-[[5-(7H-pyrrolo[2,3-d]pyrimidin-4-yl)-5,8-diazaspiro[2.5]octan-8-yl]sulfonyl]thiane-4-carboxamide], the concentration for a half-maximal effect (EC50) at JAK3, at JAK2, at TYK2 and on JAK1 was less than 100 nM each time.
For `CN(C(=O)C1CCCS(=O)(=O)C1)S(=O)(=O)N1CCN(c2ncnc3[nH]ccc23)CC12CC2` (stereo not shown) [Example 140, N-methyl-1,1-dioxo-N-[[5-(7H-pyrrolo[2,3-d]pyrimidin-4-yl)-5,8-diazaspiro[2.5]octan-8-yl]sulfonyl]thiane-3-carboxamide], the EC50 on JAK3 is 100 to 500 nM; at JAK2 it was less than 100 nM; on TYK2, greater than 500 nM; on JAK1, less than 100 nM.
Take `CN(C1CC1)S(=O)(=O)N1CCN(c2ncnc3[nH]ccc23)CC12CC2` [Example 141, N-cyclopropyl-N-methyl-5-(7H-pyrrolo[2,3-d]pyrimidin-4-yl)-5,8-diazaspiro[2.5]octane-8-sulfonamide]: the concentration giving a half-maximal response (EC50) on JAK3 is 100 to 500 nM; at JAK2, less than 100 nM; on TYK2, 100 to 500 nM; on JAK1 it was less than 100 nM.
As to `N#CCCN(CC1CCCO1)S(=O)(=O)N1CCN(c2ncnc3[nH]ccc23)CC12CC2` (stereo not shown) [Example 142, N-(2-cyanoethyl)-5-(7H-pyrrolo[2,3-d]pyrimidin-4-yl)-N-(tetrahydrofuran-2-ylmethyl)-5,8-diazaspiro[2.5]octane-8-sulfonamide], the EC50 was less than 100 nM at JAK3, less than 100 nM on JAK2, 100 to 500 nM on TYK2 and less than 100 nM at JAK1.
Turning to `CCCC(C)NS(=O)(=O)N1CCN(c2ncnc3[nH]ccc23)CC12CC2` (stereo not shown) [Example 143, N-(1-methylbutyl)-5-(7H-pyrrolo[2,3-d]pyrimidin-4-yl)-5,8-diazaspiro[2.5]octane-8-sulfonamide], the EC50 is 100 to 500 nM at JAK3, less than 100 nM at JAK2, greater than 500 nM on TYK2 and less than 100 nM at JAK1.
`O=S(=O)(NC1CCCC1)N1CCN(c2ncnc3[nH]ccc23)CC12CC2` [Example 144, N-cyclopentyl-5-(7H-pyrrolo[2,3-d]pyrimidin-4-yl)-5,8-diazaspiro[2.5]octane-8-sulfonamide]: the concentration for a half-maximal effect (EC50) is 100 to 500 nM at JAK3, less than 100 nM at JAK2, 100 to 500 nM on TYK2 and less than 100 nM on JAK1.
For the compound `N#CCN(CC#N)S(=O)(=O)N1CCN(c2ncnc3[nH]ccc23)CC12CC2` [Example 145, N,N-bis(cyanomethyl)-5-(7H-pyrrolo[2,3-d]pyrimidin-4-yl)-5,8-diazaspiro[2.5]octane-8-sulfonamide], the EC50 on JAK3 was less than 100 nM; at JAK2 it was less than 100 nM; at TYK2 it was 100 to 500 nM; at JAK1 it was less than 100 nM.
Take `O=S(=O)(N(Cc1ccccc1)Cc1ccccc1)N1CCN(c2ncnc3[nH]ccc23)CC12CC2` [Example 146, N,N-dibenzyl-5-(7H-pyrrolo[2,3-d]pyrimidin-4-yl)-5,8-diazaspiro[2.5]octane-8-sulfonamide]: the EC50 at JAK3 is greater than 500 nM; on JAK2 it was 100 to 500 nM; on TYK2 it was greater than 500 nM; on JAK1, 100 to 500 nM.
`O=S(=O)(NCc1ccccc1)N1CCN(c2ncnc3[nH]ccc23)CC12CC2` [Example 147, N-benzyl-5-(7H-pyrrolo[2,3-d]pyrimidin-4-yl)-5,8-diazaspiro[2.5]octane-8-sulfonamide]: the half-maximal effective concentration (EC50) was 100 to 500 nM at JAK3, less than 100 nM at JAK2, 100 to 500 nM at TYK2 and less than 100 nM on JAK1.
For the compound `O=S(=O)(NCC1CCC(F)(F)CC1)N1CCN(c2ncnc3[nH]ccc23)CC12CC2` [Example 148, N-[(4,4-difluorocyclohexyl)methyl]-5-(7H-pyrrolo[2,3-d]pyrimidin-4-yl)-5,8-diazaspiro[2.5]octane-8-sulfonamide], the EC50 on JAK3 is less than 100 nM; at JAK2, less than 100 nM; on TYK2, 100 to 500 nM; on JAK1, less than 100 nM.
Consider `CCN(CC1CCC(F)(F)CC1)S(=O)(=O)N1CCN(c2ncnc3[nH]ccc23)CC12CC2` [Example 149, N-[(4,4-difluorocyclohexyl)methyl]-N-ethyl-5-(7H-pyrrolo[2,3-d]pyrimidin-4-yl)-5,8-diazaspiro[2.5]octane-8-sulfonamide], for which the EC50 on JAK3 is less than 100 nM; at JAK2, less than 100 nM; at TYK2, greater than 500 nM; at JAK1, less than 100 nM.
On to `O=S(=O)(N(CC1CCC(F)(F)CC1)CC1CCC(F)(F)CC1)N1CCN(c2ncnc3[nH]ccc23)CC12CC2` [Example 150, N,N-bis[(4,4-difluorocyclohexyl)methyl]-5-(7H-pyrrolo[2,3-d]pyrimidin-4-yl)-5,8-diazaspiro[2.5]octane-8-sulfonamide], for which the 50% effective concentration (EC50) was 100 to 500 nM on JAK3, less than 100 nM at JAK2, greater than 500 nM on TYK2 and 100 to 500 nM at JAK1.
As for `CN(CC1CCN(C(=O)CCO)CC1)S(=O)(=O)N1CCN(c2ncnc3[nH]ccc23)CC12CC2` [Example 151, N-[[1-(3-hydroxypropanoyl)-4-piperidyl]methyl]-N-methyl-5-(7H-pyrrolo[2,3-d]pyrimidin-4-yl)-5,8-diazaspiro[2.5]octane-8-sulfonamide], the EC50 on JAK3 was 100 to 500 nM; at JAK2, less than 100 nM; at TYK2 it was 100 to 500 nM; at JAK1, less than 100 nM.
`CN(CC1CCN(C(=O)CCC#N)CC1)S(=O)(=O)N1CCN(c2ncnc3[nH]ccc23)CC12CC2` [Example 152, N-[[1-(3-cyanopropanoyl)-4-piperidyl]methyl]-N-methyl-5-(7H-pyrrolo[2,3-d]pyrimidin-4-yl)-5,8-diazaspiro[2.5]octane-8-sulfonamide]: the EC50 was 100 to 500 nM at JAK3, less than 100 nM at JAK2, greater than 500 nM on TYK2 and less than 100 nM at JAK1.
Turning to `CN(CC1CCCN(C(=O)CCC#N)C1)S(=O)(=O)N1CCN(c2ncnc3[nH]ccc23)CC12CC2` (stereo not shown) [Example 153, N-[[1-(3-cyanopropanoyl)-3-piperidyl]methyl]-N-methyl-5-(7H-pyrrolo[2,3-d]pyrimidin-4-yl)-5,8-diazaspiro[2.5]octane-8-sulfonamide], the concentration for a half-maximal effect (EC50) is 100 to 500 nM on JAK3, less than 100 nM on JAK2, greater than 500 nM on TYK2 and less than 100 nM at JAK1.
On to `CN(CC1CCCN(C(=O)CCO)C1)S(=O)(=O)N1CCN(c2ncnc3[nH]ccc23)CC12CC2` (stereo not shown) [Example 154, N-[[1-(3-hydroxypropanoyl)-3-piperidyl]methyl]-N-methyl-5-(7H-pyrrolo[2,3-d]pyrimidin-4-yl)-5,8-diazaspiro[2.5]octane-8-sulfonamide], for which the EC50 on JAK3 is less than 100 nM; on JAK2, less than 100 nM; on TYK2, 100 to 500 nM; at JAK1, less than 100 nM.
